Measured values: PubChem BioAssay (NCI)
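In this assay, cells in 96-well plates receive the compound at five concentrations for 48 hours. Endpoints are linearly interpolated between the surrounding concentrations. The concentration for full growth arrest is given as TGI.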

What was measured:
Test in all cases: NCI-60 cell line screen, 48 h
786-0 renal = tested on: 786-0 renal
A549 NSCLC = tested on: A549 NSCLC
ACHN renal = tested on: ACHN renal
CAKI-1 renal = tested on: CAKI-1 renal
CCRF-CEM leukemia = tested on: CCRF-CEM leukemia
COLO 205 colon = tested on: COLO 205 colon
DLD-1 colon = tested on: DLD-1 colon
DMS 114 small cell lung = tested on: DMS 114 small cell lung
DMS 273 small cell lung = tested on: DMS 273 small cell lung
HCC-2998 colon = tested on: HCC-2998 colon
HCT-116 colon = tested on: HCT-116 colon
HL-60(TB) leukemia = tested on: HL-60(TB) leukemia
HOP-18 NSCLC = tested on: HOP-18 NSCLC
HOP-62 NSCLC = tested on: HOP-62 NSCLC
HOP-92 NSCLC = tested on: HOP-92 NSCLC
HT29 colon = tested on: HT29 colon
IGROV1 ovarian = tested on: IGROV1 ovarian
K-562 leukemia = tested on: K-562 leukemia
KM12 colon = tested on: KM12 colon
LOX IMVI melanoma = tested on: LOX IMVI melanoma
LXFL 529 NSCLC = tested on: LXFL 529 NSCLC
M14 melanoma = tested on: M14 melanoma
M19-MEL melanoma = tested on: M19-MEL melanoma
MALME-3M melanoma = tested on: MALME-3M melanoma
MOLT-4 leukemia = tested on: MOLT-4 leukemia
NCI-H23 lung = tested on: NCI-H23 lung
NCI-H460 lung = tested on: NCI-H460 lung
NCI-H522 lung = tested on: NCI-H522 lung
OVCAR-3 ovarian = tested on: OVCAR-3 ovarian
OVCAR-4 ovarian = tested on: OVCAR-4 ovarian
OVCAR-5 ovarian = tested on: OVCAR-5 ovarian
OVCAR-8 ovarian = tested on: OVCAR-8 ovarian
RXF 393 renal = tested on: RXF 393 renal
RXF-631 renal = tested on: RXF-631 renal
SF-268 CNS = tested on: SF-268 CNS
SF-295 CNS = tested on: SF-295 CNS
SF-539 CNS = tested on: SF-539 CNS
SK-MEL-28 melanoma = tested on: SK-MEL-28 melanoma
SK-MEL-5 melanoma = tested on: SK-MEL-5 melanoma
SN12C renal = tested on: SN12C renal
SNB-19 CNS = tested on: SNB-19 CNS
SNB-75 CNS = tested on: SNB-75 CNS
SNB-78 CNS = tested on: SNB-78 CNS
SR leukemia = tested on: SR leukemia
SW-620 colon = tested on: SW-620 colon
TK-10 renal = tested on: TK-10 renal
U251 CNS = tested on: U251 CNS
UACC-257 melanoma = tested on: UACC-257 melanoma
UACC-62 melanoma = tested on: UACC-62 melanoma
UO-31 renal = tested on: UO-31 renal
XF 498 CNS = tested on: XF 498 CNS

Measured: TGI

Nc1c(Br)c(=O)[nH]c(=O)n1COCCO
> 100 µM: all assays above
